Marks after values point to notes of the source that are not given here.
Experiments:
hDAGLα [1] = biological target: T1, hDAGLα (Homo sapiens, UniProt Q9Y4D2); assay: Radio-TLC assay of hDAGLα inhibition with [14C]SAG substrate; format: biochemical; conditions: for inhibition of hDAGLα activity at 10 μM (in words): radiolabeled substrate [14C]SAG
T1 sequence (Q9Y4D2 1-1042): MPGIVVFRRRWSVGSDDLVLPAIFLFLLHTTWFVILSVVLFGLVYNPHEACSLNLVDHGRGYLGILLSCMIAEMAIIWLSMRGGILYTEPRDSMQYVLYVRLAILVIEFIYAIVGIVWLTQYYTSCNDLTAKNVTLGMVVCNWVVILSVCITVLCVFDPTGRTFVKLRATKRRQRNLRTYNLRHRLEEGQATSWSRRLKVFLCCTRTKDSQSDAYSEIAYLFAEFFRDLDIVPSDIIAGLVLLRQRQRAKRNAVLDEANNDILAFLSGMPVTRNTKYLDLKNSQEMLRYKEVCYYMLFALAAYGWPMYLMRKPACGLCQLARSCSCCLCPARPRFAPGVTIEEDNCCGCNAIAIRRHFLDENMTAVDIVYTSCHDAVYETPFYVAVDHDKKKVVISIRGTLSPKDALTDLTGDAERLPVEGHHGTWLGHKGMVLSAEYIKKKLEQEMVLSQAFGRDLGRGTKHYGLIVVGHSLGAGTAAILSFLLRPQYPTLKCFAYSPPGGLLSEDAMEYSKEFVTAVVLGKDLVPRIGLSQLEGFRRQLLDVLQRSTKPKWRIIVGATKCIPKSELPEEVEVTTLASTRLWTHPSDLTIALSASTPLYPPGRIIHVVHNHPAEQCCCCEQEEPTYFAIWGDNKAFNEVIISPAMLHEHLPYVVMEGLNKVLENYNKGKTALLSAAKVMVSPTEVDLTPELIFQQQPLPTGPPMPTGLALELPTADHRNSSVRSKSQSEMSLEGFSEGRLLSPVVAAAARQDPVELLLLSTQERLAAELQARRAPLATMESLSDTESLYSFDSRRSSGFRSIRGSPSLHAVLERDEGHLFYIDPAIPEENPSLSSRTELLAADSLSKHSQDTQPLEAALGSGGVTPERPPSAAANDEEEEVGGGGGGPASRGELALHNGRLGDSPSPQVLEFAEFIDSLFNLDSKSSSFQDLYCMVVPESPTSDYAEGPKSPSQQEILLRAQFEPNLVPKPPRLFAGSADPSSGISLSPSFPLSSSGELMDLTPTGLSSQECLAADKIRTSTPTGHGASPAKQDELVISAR

[2] = system: Lipoprotein Lipase (Bacterial); assay: In vitro FRET-based lipoprotein lipase assay with reporter compound 17; format: biochemical, Pseudomonas sp.
[3] = biological target: T2, Pancreatic Lipase (Porcine) (Sus scrofa, UniProt P00591); assay: In vitro FRET-based pancreatic lipase assay with reporter compound 17; format: biochemical; conditions: preliminary studies, substrate 17
T2 sequence (P00591 1-450): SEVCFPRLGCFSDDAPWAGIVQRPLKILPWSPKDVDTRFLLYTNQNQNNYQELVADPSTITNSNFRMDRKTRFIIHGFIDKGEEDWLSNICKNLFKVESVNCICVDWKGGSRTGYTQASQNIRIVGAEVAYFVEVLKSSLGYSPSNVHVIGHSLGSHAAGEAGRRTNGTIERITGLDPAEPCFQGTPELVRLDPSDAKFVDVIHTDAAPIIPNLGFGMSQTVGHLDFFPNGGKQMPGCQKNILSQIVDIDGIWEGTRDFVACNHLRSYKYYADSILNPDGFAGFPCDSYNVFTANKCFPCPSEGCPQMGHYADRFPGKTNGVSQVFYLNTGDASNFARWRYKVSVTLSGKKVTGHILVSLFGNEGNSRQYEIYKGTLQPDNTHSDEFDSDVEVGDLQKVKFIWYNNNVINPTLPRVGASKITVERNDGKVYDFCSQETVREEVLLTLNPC

FAAH = conditions: cited from earlier work
hDAGLα [4] = biological target: T1, hDAGLα; conditions: cited from earlier work
cannabinoid receptors = conditions: cited from earlier work
[5] = biological target: CB1 (rat brain preparation) (Rattus norvegicus, UniProt P20272); assay: Cannabinoid receptor competition binding, CB1
Chain of CB1 (rat brain preparation) (P20272 whole entry): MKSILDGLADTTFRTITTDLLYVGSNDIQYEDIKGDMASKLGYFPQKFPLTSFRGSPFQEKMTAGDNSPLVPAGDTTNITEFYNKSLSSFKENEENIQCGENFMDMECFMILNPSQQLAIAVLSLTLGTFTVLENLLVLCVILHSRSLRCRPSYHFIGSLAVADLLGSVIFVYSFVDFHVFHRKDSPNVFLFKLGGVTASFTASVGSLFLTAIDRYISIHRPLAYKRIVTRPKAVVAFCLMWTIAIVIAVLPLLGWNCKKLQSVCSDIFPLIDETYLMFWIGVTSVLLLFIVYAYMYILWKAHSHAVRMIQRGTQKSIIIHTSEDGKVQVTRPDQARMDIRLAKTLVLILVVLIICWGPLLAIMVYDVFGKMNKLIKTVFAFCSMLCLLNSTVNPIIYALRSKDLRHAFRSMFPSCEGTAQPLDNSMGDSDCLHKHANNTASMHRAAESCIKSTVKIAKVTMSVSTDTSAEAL

hDAGLα [6] = biological target: T1, hDAGLα; assay: In vitro FRET-based DAGL assay with reporter compound 17; format: biochemical
mDAGLβ = biological target: T3, mDAGLβ (Mus musculus, UniProt Q91WC9); assay: Radio-TLC assay of mDAGLβ inhibition with [14C]SAG substrate; format: biochemical, murine
T3 sequence (Q91WC9 1-669): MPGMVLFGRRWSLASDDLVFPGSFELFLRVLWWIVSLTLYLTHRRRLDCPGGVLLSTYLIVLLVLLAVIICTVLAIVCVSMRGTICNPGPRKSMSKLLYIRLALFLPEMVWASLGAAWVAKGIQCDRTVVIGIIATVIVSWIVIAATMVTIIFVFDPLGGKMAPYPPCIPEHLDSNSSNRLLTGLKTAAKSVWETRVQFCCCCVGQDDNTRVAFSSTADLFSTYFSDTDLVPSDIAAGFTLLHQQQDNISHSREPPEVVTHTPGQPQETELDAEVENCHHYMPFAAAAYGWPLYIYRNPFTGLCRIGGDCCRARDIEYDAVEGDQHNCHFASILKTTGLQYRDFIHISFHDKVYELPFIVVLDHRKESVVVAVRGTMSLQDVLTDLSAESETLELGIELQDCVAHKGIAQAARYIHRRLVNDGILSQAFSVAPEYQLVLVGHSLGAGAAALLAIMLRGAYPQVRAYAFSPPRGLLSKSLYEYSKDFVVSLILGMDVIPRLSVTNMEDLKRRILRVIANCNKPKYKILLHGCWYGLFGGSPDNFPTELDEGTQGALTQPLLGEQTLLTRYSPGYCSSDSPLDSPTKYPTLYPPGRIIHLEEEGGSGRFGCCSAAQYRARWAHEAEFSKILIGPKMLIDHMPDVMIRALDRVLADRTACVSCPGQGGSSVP

SMILES | inhibition of hDAGLα activity at 10 μM (in words) (hDAGLα [1]) | reported inhibition of FAAH activity (in words) (FAAH) | inhibition of hDAGLα in radio-TLC assays (in words) (hDAGLα [1]) | reported inhibition of DAGL activity (in words) (hDAGLα [4]) | binding to the cannabinoid receptors, previous reports (in words) (cannabinoid receptors) | binding to the cannabinoid receptors (in words), CB1 [5] | also measured
CCCCCCCCCCC[C@@H](C[C@@H]1OC(=O)[C@H]1CCCCCC)OC(=O)[C@H](CC(C)C)NC=O [3 (THL), tetrahydrolipstatin] | complete inhibition |  |  |  |  |  | inhibition of bacterial lipoprotein lipase (in words) [2]: potent inhibition; IC50 ([2]; read-out: apparent IC50 with lipoprotein lipase in FRET assay): ~100 nM; inhibition of porcine triacylglycerol lipase (in words) [3]: potent inhibition
O=C(Oc1ccc([N+](=O)[O-])cc1)N1CCC(C(O)(c2ccc3c(c2)OCO3)c2ccc3c(c2)OCO3)CC1 [JZL184] |  | poor inhibitors | poor inhibitors | poor inhibitors | did not bind |  | 
O=S(=O)(F)Cc1ccccc1 [PMSF, phenylmethylsulfonylfluoride] |  | poor inhibitors | poor inhibitors | poor inhibitors |  |  | effect on / reaction with DAGL (in words) (hDAGLα [4]): not affected
O=C(NCCCCCCNC(=O)ON=C1CCCCC1)ON=C1CCCCC1 [RHC80267 (1), RHC80267] |  | poor inhibitors | poor inhibitors | poor inhibitors |  | did not bind | hDAGLα inhibition at 10 μM detergent free (%) (hDAGLα [6]): 40 ^* %
O=C(N[C@H]1COC1=O)OCc1ccccc1 [SD41] | did not inhibit |  |  |  |  | did not bind | inhibition of mDAGLβ at 10 μM screening concentration (in words) (mDAGLβ): did not inhibit
NC(=O)c1cccc(-c2cccc(OC(=O)NC3CCCCC3)c2)c1 [URB597] |  |  |  |  | did not bind |  | 
